From PMC4005910 (Cell Reports, 2014)

Tests used:
[1] = Solubility of peptide for TAP binding test; type: physicochemical; conditions: could not be tested for TAP binding
cytoplasmatic peptidase = conditions: half-life; ref Lazaro et al., 2011; cited from earlier work

GTTSTLQEQIAW [GW12]
solubility [1]: insoluble

KAFSPEVIPMF [KF11]
cytoplasmatic peptidase stability, t1/2 (cytoplasmatic peptidase): 13 s
